Test results taken from patent US9398761B2, “Transgenic animal model of mood disorders” (BRAINCO BIOPHARMA, S.L., priority 2012, dated 2016).
Entries after “also recorded” stand apart in the source; their conditions may differ.

System: wild-type (WT) and PTN transgenic (TG) mice
Experiment: Novelty Suppressed Feeding Test after chronic fluoxetine treatment
Assay type: in vivo, mouse
Settings: 4 weeks; for Latency to feed, treated versus untreated: fluoxetine in drinking water 160 mg/l, one-way ANOVA on rank-transformed data
Protocol: Novelty suppressed feeding test assesses anxiety and/or depression by measuring the latency of an animal to approach and eat food in a novel environment following chronic treatment with antidepressants. Mice (WT=14 and TG=14) were separated in two experimental groups: Without fluoxetine treatment and with fluoxetine treatment. The Fluoxetine was delivered ad libitum in the drinking water at a concentration of 160 mg/l (approximately doses of 20-25 mg/kg/day) during 4 weeks. Mice were weighed and food was removed from their cage. Twenty four hr after removal of food, mice were transferred to the testing room, placed in a clean holding cage and allowed to habituate for at least 30 min. The testing apparatus consisted of a clear Plexiglas open-field (50×50×25 cm) under an aversive condition (100 lux luminosity). The floor was covered with 2 cm of corncob bedding. A small piece of mouse chow was placed in the center of the arena. At the start of the experiment, each mouse was placed in the corner of the testing area, and the time to the first feeding event was recorded. After all mice from a single cage were tested, mice were returned to their home cage. A longer latency to feed reflects an anxiety-like behaviour. […] Measurement of Latency to feed were rank-transformed (Conover and Iman, 1981) and subjected to a Two-way ANOVA having two levels of genotype (wild-type or WT and transgenic or TG) and two levels of treatment (without fluoxetine or −Flx and with fluoxetine or +Flx).

## CNCCC(Oc1ccc(C(F)(F)F)cc1)c1ccccc1 (stereo not shown) [Fluoxetine]
Novelty Suppressed Feeding Test, chronic treatment
  Sensitivity to the effect of fluoxetine, Tg compared with Wt: more sensitive
TG (PTN-overexpressing) mice
  Latency to feed, treated versus untreated: significant difference; also recorded: reversed
WT and TG mice, fluoxetine in drinking water 160 mg/l (approx. 20-25 mg/kg/day), with vs without fluoxetine
  Latency to feed, main effect of treatment (two-way ANOVA): significant
WT mice
  Latency to feed, treated versus untreated: No significant differences
